{"source": "ChEMBL document CHEMBL5523750", "about": "“Development of Novel N-Acylhydrazone Derivatives with High Anti-obesity Activity and Improved Safety by Exploring the Pharmaceutical Properties of Aldehyde Group” (J Med Chem, 2024)", "key": {"Mus musculus [1]": {"tested_on": "Mus musculus", "assay": "Anti-obesity activity in high-fat and high-cholesterol diet induced DIO mouse model assessed as decrease in TCHOL level at 10 mg/kg, ip administered everyday for 6 weeks (reference value: 4.1+/-0.7 mM)", "type": "functional"}, "3T3-L1 [2]": {"tested_on": "3T3-L1", "assay": "Induction of mitochondrial respiration in mouse 3T3-L1 preadipocytes assessed as increase in oxygen consumption rate at 0.1 to 0.5 uM incubated for 24 hrs by seahorse XFe96 flux analyzer", "type": "functional, cell-based", "details": "dose 0.1-0.5 µM"}, "3T3-L1 [3]": {"tested_on": "3T3-L1", "assay": "Lipid lowering activity in confluent mouse 3T3-L1 preadipocytes assessed as reduction in triglyceride level incubated for 9 days by oil red o staining based analysis", "type": "functional, cell-based", "details": "3T3-L1, 216 h"}, "Mus musculus [4]": {"tested_on": "Mus musculus", "assay": "Anti-obesity activity in high-fat and high-cholesterol diet induced DIO mouse model assessed as decrease in HDL-C level at 5 mg/kg, ip administered everyday for 6 weeks (reference value: 2.3+/-0.2 mM)", "type": "functional"}, "Mus musculus [5]": {"tested_on": "Mus musculus", "assay": "Anti-obesity activity in high-fat and high-cholesterol diet induced DIO mouse model assessed as decrease in ALT level at 10 mg/kg, ip administered everyday for 6 weeks (reference value: 48.6+/-13.0 U/L)", "type": "functional"}, "Mus musculus [6]": {"tested_on": "Mus musculus", "assay": "Anti-obesity activity in high-fat and high-cholesterol diet induced DIO mouse model assessed as decrease in TG level at 5 mg/kg, ip administered everyday for 6 weeks (reference value: 1.2+/-0.1 mM)", "type": "functional"}, "[7]": {"assay": "AUC (0 to infinity) in Sprague-Dawley rat at 2 mg/kg, iv measured upto 24 hrs by LC-MS/MS analysis", "type": "ADME, organism-based", "details": "in vivo"}, "Mus musculus [8]": {"tested_on": "Mus musculus", "assay": "Anti-obesity activity in high-fat and high-cholesterol diet induced male C57BL/6J mouse model assessed as reduction in triglyceride deposition at 5 to 10 mg/kg, ip administered every other day for 6 weeks by H and E staining based analysis", "type": "functional, organism-based"}, "Mus musculus [9]": {"tested_on": "Mus musculus", "assay": "Anti-obesity activity in high-fat diet induced male C57BL/6J mouse model assessed as reduction in adipose tissue mass at 20 mg/kg, po administered daily for 2 weeks", "type": "functional, organism-based"}, "3T3-L1 [10]": {"tested_on": "3T3-L1", "assay": "Activation of AMPK signaling pathway in mouse 3T3-L1 preadipocytes assessed as upregulation of AMPKalpha phosphorylation at 0.02 to 0.5 uM measured after 2 hrs by Western blot analysis", "type": "cell-based", "details": "filed as activator, dose 0.02-0.5 µM"}, "3T3-L1 [11]": {"tested_on": "3T3-L1", "assay": "Induction of DNA damage in mouse 3T3-L1 preadipocytes assessed as effect on gammaH2AX level at 20 uM incubated for 24 hrs by Western blot analysis", "type": "functional, cell-based"}, "3T3-L1 [12]": {"tested_on": "3T3-L1", "assay": "Downregulation of PPARgamma expression in mouse 3T3-L1 preadipocytes at 0.02 to 0.5 uM measured after 3 days by Western blot analysis", "type": "functional, cell-based", "details": "dose 0.02-0.5 µM, time 3.0 day"}, "Mus musculus [13]": {"tested_on": "Mus musculus", "assay": "Anti-obesity activity in high-fat and high-cholesterol diet induced male C57BL/6J mouse model assessed as effect on brown adipose tissue weight at 5 to 10 mg/kg, ip administered every other day for 6 weeks", "type": "functional, organism-based", "details": "dose 5-10 mg/kg"}, "[14]": {"assay": "Drug metabolism in Sprague-Dawley rat plasma assessed as 2-(4-((2-cyclopentylethyl)amino)quinazolin-2-yl)-1H-indole-3-carbaldehyde formation at 5 mg/kg, po measured upto 24 hrs by LC-MS analysis", "type": "ADME, organism-based", "details": "in vivo"}, "Mus musculus [15]": {"tested_on": "Mus musculus", "assay": "Anti-obesity activity in high-fat and high-cholesterol diet induced DIO mouse model assessed as decrease in TG level at 10 mg/kg, ip administered everyday for 6 weeks (reference value: 1.2+/-0.1 mM)", "type": "functional"}, "[16]": {"assay": "AUC (0 to t) in Sprague-Dawley rat at 5 mg/kg, po measured upto 24 hrs by LC-MS/MS analysis", "type": "ADME, organism-based", "details": "in vivo"}, "3T3-L1 [17]": {"tested_on": "3T3-L1", "assay": "Lipid lowering activity in confluent mouse 3T3-L1 preadipocytes assessed as reduction in triglyceride level at 0.3 uM incubated for 9 days by oil red o staining based analysis relative to control", "type": "functional", "design": "scale not given: the % may be the effect or the level left", "details": "time 9 day"}, "[18]": {"assay": "Volume of distribution at steady state (normalized by bioavailability) in Sprague-Dawley rat at 5 mg/kg, po measured upto 24 hrs by LC-MS/MS analysis", "type": "ADME, organism-based", "details": "in vivo, read-out: Vz/F"}, "[19]": {"assay": "Hepatotoxicity in male C57BL/6J mouse assessed as effect on ALT level at 20 mg/kg, po administered daily and measured after 2 weeks", "type": "toxicity, organism-based", "details": "in vivo, 336 h"}, "Mus musculus [20]": {"tested_on": "Mus musculus", "assay": "Anti-obesity activity in high-fat and high-cholesterol diet induced DIO mouse model assessed as decrease in LDL-C level at 5 mg/kg, ip administered everyday for 6 weeks (reference value: 0.8+/-0.1 mM)", "type": "functional"}, "Mus musculus [21]": {"tested_on": "Mus musculus", "assay": "Anti-obesity activity in high-fat and high-cholesterol diet induced DIO mouse model assessed as decrease in ALB level at 5 mg/kg, ip administered everyday for 6 weeks (reference value: 37.6+/-2.5 g/L)", "type": "functional"}, "Mus musculus [22]": {"tested_on": "Mus musculus", "assay": "Anti-obesity activity in high-fat and high-cholesterol diet induced male C57BL/6J mouse model assessed as decrease in food uptake at 10 mg/kg, ip administered every other day for 6 weeks relative to control", "type": "functional", "design": "scale not given: the % may be the effect or the level left"}, "Mus musculus [23]": {"tested_on": "Mus musculus", "assay": "Anti-obesity activity in high-fat and high-cholesterol diet induced DIO mouse model assessed as decrease in ALT level at 5 mg/kg, ip administered everyday for 6 weeks (reference value: 48.6+/-13.0 U/L)", "type": "functional"}, "Mus musculus [24]": {"tested_on": "Mus musculus", "assay": "Anti-obesity activity in high-fat and high-cholesterol diet induced DIO mouse model assessed as decrease in ALP level at 10 mg/kg, ip administered everyday for 6 weeks (reference value: 72.7+/-19.7 U/L)", "type": "functional"}, "Mus musculus [25]": {"tested_on": "Mus musculus", "assay": "Anti-obesity activity in high-fat and high-cholesterol diet induced DIO mouse model assessed as decrease in HDL-C level at 10 mg/kg, ip administered everyday for 6 weeks (reference value: 2.3+/-0.2 mM)", "type": "functional"}, "[26]": {"assay": "MRT (0 to t) in Sprague-Dawley rat at 5 mg/kg, po measured upto 24 hrs by LC-MS/MS analysis", "type": "ADME, organism-based", "details": "in vivo"}, "3T3-L1 [27]": {"tested_on": "3T3-L1", "assay": "Downregulation of C/EBPbeta protein expression in mouse 3T3-L1 preadipocytes at 0.02 to 0.5 uM measured after 3 days by Western blot analysis", "type": "functional, cell-based", "details": "dose 0.02-0.5 µM, time 3.0 day"}, "Mus musculus [28]": {"tested_on": "Mus musculus", "assay": "Anti-obesity activity in high-fat and high-cholesterol diet induced DIO mouse model assessed as decrease in Glu level at 10 mg/kg, ip administered everyday for 6 weeks (reference value: 7.2+/-1.6 mM)", "type": "functional"}, "Mus musculus [29]": {"tested_on": "Mus musculus", "assay": "Anti-obesity activity in high-fat and high-cholesterol diet induced DIO mouse model assessed as decrease in ALP level at 5 mg/kg, ip administered everyday for 6 weeks (reference value: 72.7+/-19.7 U/L)", "type": "functional"}, "3T3-L1 [30]": {"tested_on": "3T3-L1", "assay": "Induction of morphological changes in mouse 3T3-L1 preadipocytes assessed as alteration in cytoskeletal protein at 20 uM measured after 45 mins by phalloidin staining based HIS-SIM analysis", "type": "functional, cell-based"}, "[31]": {"assay": "Oral bioavailability (0 to infinity) in Sprague-Dawley rat at 5 mg/kg measured upto 24 hrs by LC-MS/MS analysis", "type": "ADME, organism-based", "details": "in vivo"}, "[32]": {"assay": "Nephrotoxicity in male C57BL/6J mouse assessed as effect on urea level at 20 mg/kg, po administered daily and measured after 2 weeks", "type": "toxicity, organism-based", "details": "in vivo, 336 h"}, "[33]": {"assay": "Cmax in Sprague-Dawley rat at 5 mg/kg, po measured upto 24 hrs by LC-MS/MS analysis", "type": "ADME, organism-based", "details": "in vivo"}, "Mus musculus [34]": {"tested_on": "Mus musculus", "assay": "Anti-obesity activity in high-fat and high-cholesterol diet induced DIO mouse model assessed as decrease in AST level at 10 mg/kg, ip administered everyday for 6 weeks (reference value: 133.3+/-8.5 U/L)", "type": "functional"}}, "note": "Activity calls are given as the source filed them. No cut-off for these calls is given here.", "data": [{"compound": "CC(=O)N/N=C/c1c(-c2nc(NCCN3CCCC3)c3ccccc3n2)[nH]c2ccccc12", "values": [{"measurement": "Activity", "setting": "Mus musculus [1]", "result": 3.8, "unit": "mM"}, {"measurement": "Activity", "setting": "3T3-L1 [2]", "result": "Active"}, {"measurement": "EC50", "setting": "3T3-L1 [3]", "result": 60, "unit": "nM"}, {"measurement": "Activity", "setting": "Mus musculus [4]", "result": 3.1, "unit": "mM"}, {"measurement": "Activity", "setting": "Mus musculus [5]", "result": 40.1, "unit": "U/L"}, {"measurement": "Activity", "setting": "Mus musculus [6]", "result": 1, "unit": "mM"}, {"measurement": "AUC(0-inf)", "setting": "[7]", "result": 266, "unit": "ng·h/mL"}, {"measurement": "Activity", "setting": "Mus musculus [8]", "result": "Active"}, {"measurement": "Activity", "setting": "Mus musculus [9]", "result": "Active"}, {"measurement": "Activity", "setting": "3T3-L1 [10]", "result": "Active"}, {"measurement": "Activity", "setting": "3T3-L1 [11]", "result": "Active"}, {"measurement": "Activity", "setting": "3T3-L1 [12]", "result": "Active"}, {"measurement": "Activity", "setting": "Mus musculus [13]", "result": "inactive"}, {"measurement": "Drug metabolism", "setting": "[14]", "result": "Metabolite_Detected"}, {"measurement": "Activity", "setting": "Mus musculus [15]", "result": 1.1, "unit": "mM"}, {"measurement": "AUC(0-t) at 24 h", "setting": "[16]", "result": 135, "unit": "ng·h/mL"}, {"measurement": "Activity", "setting": "3T3-L1 [17]", "result": 99.6, "unit": "%"}, {"measurement": "Vd/F", "setting": "[18]", "result": 620, "unit": "L/kg"}, {"measurement": "Activity", "setting": "[19]", "result": "Non-Toxic"}, {"measurement": "Activity", "setting": "Mus musculus [20]", "result": 0.8, "unit": "mM"}, {"measurement": "Activity", "setting": "Mus musculus [21]", "result": 37.4, "unit": "g/L"}, {"measurement": "Activity", "setting": "Mus musculus [22]", "result": "~11.6", "unit": "%"}, {"measurement": "Activity", "setting": "Mus musculus [23]", "result": 44.3, "unit": "U/L"}, {"measurement": "Activity", "setting": "Mus musculus [24]", "result": 50.7, "unit": "U/L"}, {"measurement": "Activity", "setting": "Mus musculus [25]", "result": 2.9, "unit": "mM"}, {"measurement": "MRT last at 24 h", "setting": "[26]", "result": 12.7, "unit": "h"}, {"measurement": "Activity", "setting": "3T3-L1 [27]", "result": "Active"}, {"measurement": "Activity", "setting": "Mus musculus [28]", "result": 4.3, "unit": "mM"}, {"measurement": "Activity", "setting": "Mus musculus [29]", "result": 61.3, "unit": "U/L"}, {"measurement": "Activity", "setting": "3T3-L1 [30]", "result": "inactive"}, {"measurement": "bioavailability", "setting": "[31]", "result": 45.7, "unit": "%"}, {"measurement": "Activity", "setting": "[32]", "result": "Non-Toxic"}, {"measurement": "Cmax", "setting": "[33]", "result": 8.2, "unit": "ng/mL"}, {"measurement": "Activity", "setting": "Mus musculus [34]", "result": 131.1, "unit": "U/L"}]}]}
